Measurements from patent publication US20100055078A1, “METHODS OF MAKING A TRANSPLANTABLE BONE REPAIR SYSTEM USING MULTIPOTENT STEM CELLS” (The Government of the U.S.A, as represented by the …, priority 2008, published 2010).
“Also recorded” adds a separate entry of the source.

Columns and labels:
Type in all cases: cell-based
[1] = test system: Wounded Mineralized MC3T3-E1 Cells; assay: Total protein content of wounded mineralized cultures (Bio-Rad DC protein assay); conditions: normalized to the control culture; 24 hours of treatment
Protocol: (§1) Cell culture: Cloned MC3T3-E1 osteoblasts (Kodama et al., J. Cell. Physiol. 112:89-95, 1992) were maintained in alpha MEM medium (Catalog No. MT15012CV Fisher Scientific, Pittsburgh, Pa.) containing 10% fetal bovine serum (FBS), 1% antibiotic solution and 1% glutamine solution and subcultured every 3 to 4 days. The cells were subcultured by incubating with trypsin for five minutes and resuspending at a concentration of 3×10^5 cells/ml. For experiments, cells were grown in the same medium as above, using multiwell plates (35 mm for microscopy and 22 mm for thymidine uptake studies). Each well contained a round 12 mm glass cover slip. Cultures for microscopy contained a 22 mm diameter coverslip with a 12 mm coverslip on top. After three days, the cells reached confluence and differentiation medium (DM) was added. DM was alpha MEM medium containing 10% FBS, 1% antibiotic solution and 1% glutamine solution, supplemented with ascorbic acid (50 μg/ml) and β-glycerol phosphate (10 mM) to induce mineralization. The cultures were then incubated for 9 more days. Microscopic examination was done at this time, using Von Kossa stain to confirm mineralization of the cultures. A critical defect in the mineralized cell layers was created by removing the 12 mm coverslips under sterile conditions and then incubating the cultures for an additional 24 hours in DM containing 4% FBS with IGF-1 (20 ng/ml), FGF-2 (0.2 ng/ml), PDGF (3 ng/ml), TGFβ (2 ng/ml) or PGE2 (2 μg/ml). At least triplicate independent biological samples in multiple experiments were carried out for data collection.
Protein assay: Protein concentration was determined by Bio-Rad DC™ protein assay (Bio-Rad, Hercules, Calif.) according to the manufacturer's protocol.

[2] = test system: MC3T3-E1 osteoblasts; assay: [3H]-thymidine incorporation into DNA in wounded mineralized cell layers (in vitro fracture model); conditions: for increase of thymidine incorporation: wounded MC3T3-E1, 24 hour treatment, FGF-2 0.2 ng/ml, TGFβ 2 ng/ml, PGE2; for change in DNA synthesis (thymidine incorporation), in words: wounded MC3T3-E1, within twenty-four hours of treatment
Protocol: as §1
Tritiated thymidine incorporation into DNA: At the conclusion of the 24 hour incubation, the culture medium was removed and the cells were incubated for 15 minutes at 37° C. in 1 ml PBS containing tritiated thymidine (4 μCi/ml). Following this incubation, the PBS was removed and the cells washed 3 times with ice cold trichloroacetic acid (TCA) followed by ice cold ethanol and allowed to air dry. Then 1 ml of sarkosyl lysis buffer ([…] containing 1% sarkosyl) was added to each well; all the cells were solubilized after 30 minutes. Finally, after mixing the resulting solution with a pipette, radioactivity was counted in a scintillation counter and protein content was measured. The data was calculated and expressed as disintegrations per minute per microgram protein.

[3] = test system: MC3T3-E1 cell monolayers; assay: Cell re-growth and migration into the coverslip defect, rhodamine phalloidin microscopy; conditions: for re-growth of cells into the defect, in words / relative migration: 24 hours after injury; for pattern of re-growth and cell morphology in the defect, in words: FGF-2 0.2 ng/ml, PGE2 10 μg/ml; for relative migration: from wound site to migrating edge
Protocol: as §1, with “([…]).” for “(2 ng/ml) or PGE2 (2 μg/ml).”
Microscopy: At the conclusion of the 24 hour incubation, the remaining 22 mm coverslip containing the regenerating area of the culture was removed. The specimen was rinsed five times in room temperature phosphate buffered saline (PBS) and fixed. Cells were visualized with the F-actin probe rhodamine phalloidin (Invitrogen, Carlsbad, Calif.). After rinsing in distilled water and air drying the samples, the coverslips were mounted on microscope slides using FLUOROMOUNT™ and the cells were examined and photographed. Photomicrographs were made on a Zeiss Axioskop epi-fluorescent microscope using a 40× objective. Migration was measured on the photomicrographs from the site of the wound to the migrating edge using a metric ruler (n=3) for each measurement.

[4] = test system: MC3T3-E1 cells; assay: Cell growth on pre-treated nylon ribbons; conditions: up to 4 days, 0.1 mg/ml fibrinogen, HAHp, 50 ng/ml FGF-2
Protocol: Growth on Nylon Ribbons: 250,000 MC3T3-E1 osteoblast cells were seeded in 12-well plates containing 1 inch by 1 inch nylon ribbons pre-treated with 0.1 mg/ml fibrinogen or 1 mg/ml HA and 3 mg/ml heparin (HAHp) with or without 50 ng/ml FGF-2. Cells were visualized under 10× objective at 1 and 4 days after seeding.

[5] = test system: MC3T3-E1 cells; assay: qRT-PCR gene expression in mineralizing cells treated with growth factor
Protocol: Cell Culture: MC3T3-E1 cells were grown and mineralized essentially as described in Example 1.
RNA Isolation: RNA was isolated using the RNeasy™ Mini kit (Qiagen, Valencia, Calif.) or TriReagent™ (Sigma-Aldrich, St. Louis, Mo.) according to the manufacturer's protocol.
Reverse Transcription: 1.5 μg of RNA was added to 30 μl reverse transcriptase (RT) reaction buffer containing 5 mM MgCl2, 10 mM Tris-HCl (pH 8.3), 50 mM KCl, 1 mM dNTPs, 2.5 μM oligo d(T) primer, 2.5 U/μl of MuLV RT, and 1 U/μl of RNase inhibitor. The RT reaction was incubated at room temperature for 10 min, 42° C. for 30 min, inactivated at 99° C. for 5 min, and cooled at 5° C. for 5 min.
Real-time Quantitative RT-PCR Reaction (qRT-PCR): 2 μl of cDNA from the RT reaction was added to 20 μl real-time quantitative polymerase chain reaction (qRT-PCR) mixture containing 10 μl of 2×SYBR® Green PCR Master Mix (Applied Biosystems, Foster City, Calif.) and 12 pmol oligonucleotide primers. PCR was carried out in a Bio-Rad MY iQ® Single-Color Real-Time PCR Detection System (Bio-Rad, Hercules, Calif.) at 50° C. for 2 min, 95° C. for 10 min to activate the Taq polymerase, followed by 50 amplification cycles, consisting of denaturation at 95° C. for 1 min 40 sec, annealing at 63° C. for 1 min 10 sec, and elongation at 72° C. for 1 min 40 sec. Fluorescence was measured and used for quantitative purposes. At the end of the amplification period, melting curve analysis was performed to confirm the specificity of the amplicon. RNA samples were normalized to a cyclophilin (CPHI) internal standard. Relative quantification of gene expression was calculated by using the 2^−(Ct gene T−Ct CPHI T)−(Ct gene 0 hr−Ct CPHI 0 hr) equation, where “Ct gene T” represents the calculated threshold cycle (Ct) of a time point of each sample other than 0 hr, or each treatment other than control. Relative gene abundance is calculated using 2^(Ct gene T−Ct CPHI T), resulting numbers were then multiplied by 10,000 for better graphical presentation. Primer sequences were previously described (Hughes-Fulford and Gilbertson, FASEB J. 13:S121-127, 1999; Hughes-Fulford et al., Gravit. Space Biol. Bull. 11:51-60, 1998; Tjandrawinata and Hughes-Fulford, Adv. Exp. Med. Biol. 407:163-170, 1997; Hughes-Fulford, Adv. Exp. Med. Biol. 400A:269-278, 1997; Hughes-Fulford and Lewis, Exp. Cell Res. 224:103-109, 1996). All data derived using qRT-PCR was from multiple experiments with triplicate independent biological samples.

[6] = test system: human mesenchymal stem cells (hMSC); assay: Proliferation of mesenchymal stem cells, CyQuant relative cell number; conditions: of treatment
Protocol: Mesenchymal stem cells were isolated from bone marrow by adding 50 μl ROSETTESEP® human mesenchymal stem cell enrichment cocktail (StemCell Technologies, Vancouver, BC, Canada) to each ml of bone marrow. The mixture was incubated for 20 minutes at room temperature and then diluted 2× with PBS containing 2% FBS and 1 mM EDTA. The diluted sample was layered on FICOLL-PAQUE™ (StemCell Technologies, Vancouver, BC, Canada) and centrifuged at 300×g for 25 minutes. Enriched MSCs were removed from the FICOLL-PAQUE™:plasma interface, washed with PBS containing 2% FBS and 1 mM EDTA, and resuspended in αMEM culture medium.
Isolated MSCs were seeded to 96-well plates. […] 2,000 cells per well were seeded on 96-well plates. […] Relative cell number was obtained with a CYQUANT® Cell Proliferation kit (Invitrogen, Carlsbad, Calif.) according to the manufacturer's protocol.

[7] = test system: human MSCs; assay: Cell migration and growth in the center of a pre-treated collagen sponge; design: key to Cell Growth in Sponge: One positive (+) indicates low cell number visible in the field; two positives (++) indicates a thin layer of cells visible in the field; three positives (+++) indicates many cells visible in the field
[8] = test system: MC3T3-E1 cells; assay: Cell proliferation on ECM protein coated wells with FGF-2, CyQuant; conditions: wells containing ECM proteins and FGF-2
Protocol: Cell Proliferation: Five-hundred MC3T3-E1 osteoblast like cells were plated on a 96 well plate with ECM proteins coated on the bottom of the well. Sextuplet independent samples with and without FGF-2 were each plated in wells and 500 MC3T3-E1 cells were then adhered and grown for 3 days. Cell number was measured using CyQuant assay kit. Medium was changed daily

[9] = 24 hours, FGF-2 5 ng/ml or BMP-2 100 ng/ml, corrected to cyclophilin

Molecule: CCCCC[C@H](O)/C=C/[C@H]1[C@H](O)CC(=O)[C@@H]1C/C=C\CCCC(=O)O [PGE2, prostaglandin E2, reference compound]
- Total Protein/Culture [1]: 1.51
- increase of thymidine incorporation [2]: > 3.3 fold
- change in DNA synthesis (thymidine incorporation), in words [2]: significantly enhanced
- re-growth of cells into the defect, in words [3]: showed cellular proliferation at the interface of the mature cultures and the defect
- pattern of re-growth and cell morphology in the defect, in words [3]: more linear pattern and formed multiple elongated pseudopodia
- relative migration [3]: 3.2±0.2 mm

Molecule: fibrinogen
- cell growth on nylon ribbon, in words [4]: Little or no cell proliferation

Molecule: fibroblast growth factor-2 [FGF-2]
- Relative abundance of gene expression: ALP [5, 9]: 13.39
- Relative abundance of gene expression: BMP-2 [5, 9]: **0.06
- Relative abundance of gene expression: Collagen Type I [5, 9]: **678.21
- Relative abundance of gene expression: Fibronectin [5, 9]: *28432.19
- Relative abundance of gene expression: IGF-1 [5, 9]: **50.65
- Relative abundance of gene expression: MMP3 [5, 9]: **4.04
- Relative abundance of gene expression: Noggin [5, 9]: *1.61
- Relative abundance of gene expression: OC [5, 9]: **1.38
- Relative abundance of gene expression: RUNX2 [5, 9]: **674.95
- Relative abundance of gene expression: TGFβ [5, 9]: **245.40
- Relative abundance of gene expression: VEGFA [5, 9]: **5132.66
- expression of genes associated with mineralization (col1a1, fn, bmp-2, oc, runx2, noggin), in words ([5]; over 24 hours): significantly decreased; also recorded: significantly suppressed
- expression of igf-1, in words ([5]; over 24 hours): significantly decreased
- expression of egr-1, fgf-2, cox-2, tgfβ, mmp3, vegfA and vegfr1, in words ([5]; over a 24 hour period): dramatically induced
- optimum dose for proliferation [6]: 2.5 to 5 ng/mL
- Cell Growth in Sponge ([7]; center of collagen sponge, after four days, 100 ng/ml FGF-2, 0.1 mg/ml fibrinogen, HAHp 0.3% w/w heparin with 1% hyaluronic acid): +
- cells observed in the collagen sponge, in words ([7]; pre-treated collagen sponge): Some cells were observed
- Total Protein/Culture [1]: 1.49
- increase of thymidine incorporation [2]: more than 4.5 fold
- change in DNA synthesis (thymidine incorporation), in words [2]: significantly enhanced
- re-growth of cells into the defect, in words [3]: showed cellular proliferation at the interface of the mature cultures and the defect
- pattern of re-growth and cell morphology in the defect, in words [3]: rapid coverage of the defect void
- relative migration [3]: 5.4±0.5 mm
- cell growth on nylon ribbon, in words [4]: Little or no cell proliferation

Molecule: fibronectin
- MC3T3-E1 cell proliferation, in words [8]: significantly increased

Molecule: insulin-like growth factor-1 [IGF-1]
- Total Protein/Culture [1]: 1.19
- change in DNA synthesis (thymidine incorporation), in words [2]: small and unremarkable changes
- re-growth of cells into the defect, in words [3]: little and unremarkable re-growth

Molecule: platelet-derived growth factor [PDGF]
- Total Protein/Culture [1]: 1.38
- change in DNA synthesis (thymidine incorporation), in words [2]: small and unremarkable changes
- re-growth of cells into the defect, in words [3]: little and unremarkable re-growth

Molecule: transforming growth factor β [TGFβ]
- Total Protein/Culture [1]: 1.55
- increase of thymidine incorporation [2]: more than 2 fold
- change in DNA synthesis (thymidine incorporation), in words [2]: significantly enhanced
- re-growth of cells into the defect, in words [3]: showed cellular proliferation at the interface of the mature cultures and the defect
- relative migration [3]: 1.8±0.4 mm
